Entries after “also recorded” stand apart in the source; their conditions may differ.
Experiments:
[1] = tested on: Chinese hamster ovary (CHO) cells; test: In vitro study of 4(5)-nitrohistidine as a radiosensitizer, 300 cGy 9 MeV electron beam; type: cell-based
Experimental: FIG. 2A is an in vitro study of nitrohistidine on Chinese hamster ovary (CHO) cells. CHO cells were in use in an F12 medium with fetal calf serum. A 9 MeV electron beam was used to irradiate the Petri dishes, dose 300 cGy, and a concentration range of 1-4 mM nitrohistidine was employed.
FIG. 2B is an in vitro study of nitrohistidine compared to misonidazole on CHO cells.
An in vitro study using Chinese hamster ovary (CHO) cells was carried out using F12 medium with fetal calf serum for growth of the CHO cells. A 9 MeV electron beam, generated by a Varian Clinac 1800 instrument, was used to irradiate the Petri dishes, at a dose of 300 cGy, and a concentration of 1 to 4 mM 4(5)-nitrohistidine was added alone, or in combination with the radiation dose.

Lewis lung carcinoma [2] = test: In vivo growth retardation experiment 2 with Lewis lung carcinoma (comparison with misonidazole); set-up: species or system mice; conditions: for tumor growth course (in words): mice with Lewis lung carcinoma, radiosensitizer plus radiation
From the text: Another growth retardation study was done in mice implanted with Lewis lung carcinoma comparing 4(5)-nitrohistidine (NHis) plus radiation treatment to misonidazole plus radiation treatment.

[3] = tested on: Chinese hamster ovary (CHO) cells; test: In vitro study of 4(5)-nitrohistidine as a radiosensitizer under hypoxic conditions; type: cell-based; conditions: 30 min hypoxic pre-incubation
Lewis lung carcinoma [4] = test: In vivo growth retardation experiment 1 with Lewis lung carcinoma; set-up: species or system mice (C-57)
Experimental: FIG. 4 is an in vivo Growth Retardation Study of Lewis lung carcinoma in […]. Groups of 5-6 mice were subcutaneously implanted with Lewis Lung Carcinoma cells and permitted to grow a small measurable tumor in the hind leg. Radiosensitizers were given by i.p. injection. In some comparative experiments, nitrohistidine was employed at half the concentration of misonidazole. The measurable tumors were treated with a single 500 cGy fraction of 9 MeV electrons.
FIG. 5 is a tumor size assessment plot from the Growth Retardation Study of FIG. 4, showing tumor size as a function of time (in days).
Groups of 5-6 mice (C-57) were subcutaneously implanted in the hind leg with Lewis lung carcinoma cells and the cells were permitted to grow until a measurable tumor was evident. Radiosensitizers were administered using i.p. injection at 2 mM concentration, and then treated with a single 500 cGy dose administered with a 9 MeV electron beam and tumor size measured daily for a period of 9 days. Control mice were implanted with tumor cells and left untreated.

protozoa = conditions: Brossi et al.; cited from earlier work
[5] = tested on: Chinese hamster ovary (CHO) cells; test: In vitro synergism of buthionine sulfoximine and 4(5)-nitrohistidine as radiosensitizers; type: cell-based; conditions: compounds at 2 mM, radiation 0 to 10 Gy
Experimental: Buthionine sulfoximine is an agent known to deplete the levels of endogenous detoxifier and radioprotector glutathione. […] In several experiments, as here, the enhancement ration was greater than two with both agents present. CHO cells were used in the experiments and trhe compounds were present at 2 mM concentration as indicated.
Chinese hamster ovary cells were grown on F12 medium supplemented with fetal calf serum. Cells were treated with dosages of radiation from 0 to 10 Gy, using a 9 MeV electron beam as above, either alone or in the presence of nitrohistidine, buthionine sulfoximine, or 4(5)-nitrohistidine plus buthionine sulfoximine together. When present, the buthionine sulfoximine and 4(5)-nitrohistidine were added at 2 mM concentration. […] S. fractions remaining for the combined dual drug/radiation treatment indicate an initial lag time, before continued depletion of cells surviving, down to less than 0.01 SF at 10 Gy in the presence of both NHis and BSO. The enhancement ratio calculated for the combined treatment was greater than two over that of any other treatment combination.

tumors = conditions: number of trials out of all trials; cited from earlier work
[6] = first group of mice, NHis+XRT, day 9
[7] = second group of mice, NHis+XRT, day 9

With NC(Cc1nc[nH]c1[N+](=O)[O-])C(=O)O (stereo not shown) [4(5)-nitrohistidine] the “toxicity of nitrohistidine alone (S. fraction, surviving fraction of cells)” value ([1]; 1-4 mM nitrohistidine, no radiation) was “did not appear to possess toxicity by itself; also recorded: did not exhibit any toxicity”, the “effective concentration range for radiosensitization” value ([1]; 300 cGy) was 1 to 4 mM and the “S. fraction (surviving fraction) in the presence of ionizing radiation (Nitro+XRT)” value ([1]; 300 cGy, all four concentrations 1 to 4 mM) was “under 0.6”. For the same molecule, the “radiosensitizing effectiveness of 2 mM compared with 5 mM” value ([1]; additional studies, data not shown) was “nearly as effective as 5 mM”, the “tumor growth course (in words)” value (Lewis lung carcinoma [2]) was “plateau in tumor growth after 9-10 days” and the “in vivo radiosensitizer potency compared with misonidazole” value (Lewis lung carcinoma [2]; plus radiation, in vivo) was “more potent and effective radiosensitizer than misonidazole”. For the same molecule, the “S. Fraction at 10 Gy” value ([3]; 2 mM plus radiation) was “about 0.006”, the calculated enhancement ratio ([3]; 2 mM, at the 0.1 level SF value (90% killing), versus radiation alone) was 1.38 and the “growth retardation compared to the control group” value (Lewis lung carcinoma [4]; [6]) was “about 22%”. The “growth retardation compared to the group treated with radiation alone” value (Lewis lung carcinoma [4]; [6]) was “about 10%”, the “tumor size at day 9” value (Lewis lung carcinoma [4]; first group of mice, NHis+XRT, i.p., single 500 cGy dose) was “about 18 mm” and the “tumor size at day 9” value (Lewis lung carcinoma [4]; second group of mice, NHis alone without radiation (same value given for control)) was “about 21 mm”. The “tumor size at day 9” value (Lewis lung carcinoma [4]; second group of mice, NHis+XRT) was “about 15 mm”, the “growth retardation compared to the XRT treatment alone” value (Lewis lung carcinoma [4]; [7]) was roughly 35% and the “growth retardation compared to the control or NHis alone” value (Lewis lung carcinoma [4]; [7]) was “about 29%”. For the same molecule, the “efficacy as an anti-protozoal agent relative to known anti-protozoal nitroimidazole agents” value (protozoa) was “zero”.

With CCCCS(=N)(=O)CCC(N)C(=O)O (stereo not shown) [Buthionine sulfoximine, buthionine sulfoximine] the “radiosensitization / synergism (in words)” value [5] was “some radiosensitization properties of its own”.

For COCC(O)Cn1ccnc1[N+](=O)[O-] (stereo not shown) [misonidazole, reference compound], the “tumor growth course (in words)” value (Lewis lung carcinoma [2]) is listed as “no ability to retard tumor growth” and the “clinical trials that suggested any clinical benefit as a radiosensitizer” value (tumors) is listed as 5 of 38.
